Source: patent publication US20040235939A1, “Synthesis of peloruside a and analogs thereof for use as antitumor agents” (priority 2003, published 2004)

Key:
[1] = system: LoVo; assay: SRB cytotoxicity assay, LoVo; assay type: cell-based; settings: Homo sapiens
Protocol: (§1) Cells were treated on Days 1, 3, 5, and 7 with 5 μL of media, vehicle, or drug. Peloruside A was resuspended in 0.1% DMSO and added to wells to a final concentration of 0.01, 0.1, 1, 10 or 100 nM. Taxol® (Sigma-Aldrich) was resuspended in 0.1% ethanol and added to cells to a final concentration of 0.1, 1, 10, 100, or 1000 nM.
(§2) The amount of surviving cells was measured using the sulforhodamine B (SRB) assay as previously described (Skehan et al., New colorimetric cytotoxicity assay for anticancer-drug screening. J. Natl. Cancer Inst., 1990. 82(13): p. 1107-12). Cells were fixed on Days 5, 7, and 9 (representing 4, 6, and 8 days of exposure to drug or control, respectively) with 50% (w/v) trichloroacetic acid for 1 hour at 4° C., rinsed thoroughly with water, and dried overnight. The dried cells were stained with 4% sulforhodamine B in 1% acetic acid, rinsed thoroughly and dried overnight. The bound dye was resuspended in 10 mM Tris and the absorbance was read at 492 nm. Percent growth inhibition (GI) was calculated as follows: %GI=(1−(absorbance sample/absorbance vehicle))×100. The absorbance value for each drug concentration and control represents the average of 6 replicates. The %GI was plotted against the log[drug] to generate the growth curves. The concentration of drug required to inhibit growth by 50% (GI50) was calculated for each time point.

[2] = system: HCT-15; assay: SRB cytotoxicity assay, HCT-15; assay type: cell-based; settings: Homo sapiens
Protocol: as §1, §2

[3] = system: HCT-116; assay: SRB cytotoxicity assay, HCT-116; assay type: cell-based; settings: Homo sapiens
Protocol: as §1, §2

[4] = system: Capan-1; assay: SRB cytotoxicity assay, Capan-1; assay type: cell-based; settings: Homo sapiens
Protocol: as §1, §2

[5] = system: Mia PaCa-2; assay: SRB cytotoxicity assay, Mia PaCa-2; assay type: cell-based; settings: Homo sapiens
Protocol: as §1, §2

[6] = system: SK-MEL-5; assay: SRB cytotoxicity assay, SK-MEL-5; assay type: cell-based; settings: Homo sapiens
Protocol: as §1, §2

[7] = system: SK-MEL-28; assay: SRB cytotoxicity assay, SK-MEL-28; assay type: cell-based; settings: Homo sapiens
Protocol: as §1, §2

[8] = system: SK-OV-3; assay: SRB cytotoxicity assay, SK-OV-3; assay type: cell-based; settings: Homo sapiens
Protocol: as §1, §2

[9] = system: CAKI-1; assay: SRB cytotoxicity assay, CAKI-1; assay type: cell-based; settings: Homo sapiens
Protocol: as §1, §2

[10] = system: A498; assay: SRB cytotoxicity assay, A498; assay type: cell-based; settings: Homo sapiens
Protocol: as §1, §2

[11] = system: PC-3; assay: SRB cytotoxicity assay, PC-3; assay type: cell-based; settings: Homo sapiens
Protocol: as §1, §2

[12] = system: DU-145; assay: SRB cytotoxicity assay, DU-145; assay type: cell-based; settings: Homo sapiens
Protocol: as §1, §2

[13] = system: BT-549; assay: SRB cytotoxicity assay, BT-549; assay type: cell-based; settings: Homo sapiens
Protocol: as §1, §2

[14] = system: NCI-H460; assay: SRB cytotoxicity assay, NCI-H460; assay type: cell-based; settings: Homo sapiens
Protocol: as §1, §2

[15] = system: NCI-H1395; assay: SRB cytotoxicity assay, NCI-H1395; assay type: cell-based, human; settings: Homo sapiens
Protocol: as §1, §2

[16] = system: NCI-H2887; assay: SRB cytotoxicity assay, NCI-H2887; assay type: cell-based, human
Protocol: as §1, §2

[17] = system: Hep-G2; assay: SRB cytotoxicity assay, Hep-G2; assay type: cell-based; settings: Homo sapiens
Protocol: as §1, §2

[18] = system: SK-HEP-1; assay: SRB cytotoxicity assay, SK-HEP-1; assay type: cell-based; settings: Homo sapiens
Protocol: as §1, §2

[19] = system: BSC-1 (Monkey Kidney epithelial) cells; assay: Immunofluorescent staining of tubulin in BSC-1 cells; assay type: cell-based; settings: 200 nM of Taxol® or 50 nM of Peloruside A
[20] = system: ptx10 cells; assay: Cell Titer-Glo cell viability, Taxol-resistant ptx10 cells; settings: Homo sapiens, PTX10, 48 h, read-out: cell viability
Protocol: (§3) These cell lines have specific amino acid mutations in tubulin that prevent Taxol®-binding. […] Synthetic (+)-Peloruside A was used for the present example.
(§4) 1A9, ptx10 and ptx22 cells were plated in 96-well plates to approximately 50% confluency. On the next day, Taxol® or Peloruside A was added to each well and incubated for 48 hours. A final concentration of 1, 2, 3, 4, 5, 8, 10, 20, 30, 50, 100, 300, 500, or 1000 nM of Taxol® was used. A final concentration of 10, 20, 30, 40, 50 or 70 nM of Peloruside A was used. Cell viability was measured using the Cell Titer-Glo Luminescent Cell Viability Assay (Promega). FIGS. 80-82 show bar graphs of cell viability at various concentrations of Peloruside A and Taxol®.

[21] = system: ptx22 cells; assay: Cell Titer-Glo cell viability, Taxol-resistant ptx22 cells; settings: Homo sapiens, 48 h, read-out: cell viability
Protocol: as §3, §4

Structure (SMILES): CC[C@H](/C=C(/C)C1C[C@@H](OC)CC(O)C(C)(C)C2(O)OC(C[C@@H](OC)C2O)C[C@@H](OC)[C@H](O)C(=O)O1)CO (single isomer, unassigned; (+)) [Peloruside A, (+)-Peloruside A]
- GI50 ([1]; 96 h): 11.8 nM
- GI50 ([1]; 144 h): 7.34 nM
- GI50 ([1]; 192 h): 6.14 nM
- GI50 ([2]; HCT-15, 96 h): 14.3 nM
- GI50 ([2]; HCT-15, 144 h): 9.23 nM
- GI50 ([2]; HCT-15, 192 h): 11.7 nM
- GI50 ([3]; HCT-116, 96 h): 3.64 nM
- GI50 ([3]; HCT-116, 144 h): 5.81 nM
- GI50 ([3]; HCT-116, 192 h): 1.79 nM
- GI50 ([4]; CAPAN-1, 96 h): 29.8 nM
- GI50 ([4]; CAPAN-1, 144 h): 6.8 nM
- GI50 ([4]; CAPAN-1, 192 h): 5.21 nM
- GI50 ([5]; MIA PaCa-2, 96 h): 9.65 nM
- GI50 ([5]; MIA PaCa-2, 144 h): 1.76 nM
- GI50 ([5]; MIA PaCa-2, 192 h): 2.44 nM
- GI50 ([6]; SK-MEL-5, 96 h): 9.42 nM
- GI50 ([6]; SK-MEL-5, 144 h): 1.76 nM
- GI50 ([6]; SK-MEL-5, 192 h): 2.44 nM
- GI50 ([7]; SK-MEL-28, 96 h): 23.3 nM
- GI50 ([7]; SK-MEL-28, 144 h): 7.29 nM
- GI50 ([7]; SK-MEL-28, 192 h): 2.07 nM
- GI50 ([8]; SK-OV-3, 96 h): 8.81 nM
- GI50 ([8]; SK-OV-3, 144 h): 8.51 nM
- GI50 ([8]; SK-OV-3, 192 h): 5.77 nM
- GI50 ([9]; CAKI-1, 96 h): 12.5 nM
- GI50 ([9]; CAKI-1, 144 h): 3.97 nM
- GI50 ([9]; CAKI-1, 192 h): 3 nM
- GI50 ([10]; A498, 96 h): 7.3 nM
- GI50 ([10]; A498, 144 h): 1.9 nM
- GI50 ([10]; A498, 192 h): 2.75 nM
- GI50 ([11]; PC-3, 96 h): 11.6 nM
- GI50 ([11]; PC-3, 144 h): 6.5 nM
- GI50 ([11]; PC-3, 192 h): 2.46 nM
- GI50 ([12]; DU-145, 96 h): 9.2 nM
- GI50 ([12]; DU-145, 144 h): 3.25 nM
- GI50 ([12]; DU-145, 192 h): 2.94 nM
- GI50 ([13]; BT-549, 96 h): 38.8 nM
- GI50 ([13]; BT-549, 144 h): 4.28 nM
- GI50 ([13]; BT-549, 192 h): 5.73 nM
- GI50 ([14]; NCI-H460, 96 h): 8.27 nM
- GI50 ([14]; NCI-H460, 144 h): 5.38 nM
- GI50 ([14]; NCI-H460, 192 h): 4.77 nM
- GI50 ([15]; NCI-H1395, 96 h): 1010 nM
- GI50 ([15]; NCI-H1395, 144 h): 84.1 nM
- GI50 ([15]; NCI-H1395, 192 h): 15.2 nM
- GI50 ([16]; Homo sapiens, NCI-H2887, 144 h): 674 nM
- GI50 ([16]; Homo sapiens, NCI-H2887, 192 h): 9.15 nM
- GI50 ([16]; NCl-H2887, Lung, 4 Days): 4 Days: Resistant
- GI50 ([17]; HepG2, 96 h): 18 nM
- GI50 ([17]; HepG2, 144 h): 1.58 nM
- GI50 ([17]; HepG2, 192 h): 0.98 nM
- GI50 ([18]; SK-HEP1, 96 h): 39.3 nM
- GI50 ([18]; SK-HEP1, 144 h): 11.2 nM
- GI50 ([18]; SK-HEP1, 192 h): 1.45 nM
- formation of a bipolar spindle [19]: inhibits the formation of a bipolar spindle
- viability at 0.03 µM [20]: ~50%
- viability at 0.03 µM [21]: ~50%
